Consider two compounds from patent publication US4943566A, “Novel 17-aryl-steroids” (Roussel Uclafi, priority 1987, dated 1990).

Each structure is given as a SMILES string.

Test [1] deals with mammary Tumoral cells MCF-7. Kind of test: Anti-proliferative activity against the increase of mammary tumoral cells MCF-7 (ADN by DABA fluorimetry). Type of test: cell-based. Conditions: Homo sapiens, MCF7, 144 h; MCF-7 cells, SVF medium, 6 days, ADN content; read-out: CI50 in nM (concentration which inhibits by 50% the increase in the MCF 7 cells). The method, then: The cell culture line MCF-7 was maintained in culture in SVF (1) medium at 37° C. in a humid atmosphere containing 5% CO2. The cells at subconfluence were collected by trypsination (0.05% trypsine, 0.02% EDTA) then rinsed by gentle centrifiguation. A sample of the cells in suspension was counted by the Malassez cell. To study the increase, the cells resuspended in SVF medium were innoculated at a rate of 30,000 cells per well in a multiwell plate (24 wells per 2.5 cm^2) 24 hours after the innoculation (Day 0), the test compound was added to the medium in an ethanolic solution (final ethanol concentration is 0.1%) a concentration of 10^-6 M. The control wells received the same concentration of ethanol. The mediums were totally renewed at 48 hours. At the end of the experiment (Day 6), the medium was aspirated and the cells were immediately fixed by 150 μl of methanol after a dose of ADN. The anti-proliferative activity of the products was determined by the capacity to inhibit ADN increase.
ADN is dosed by a fluorimetric method using DABA (3,5-diamino benzoic acid). 150 μl of DABA was added to each well and the plates were incubated for 45 minutes at 56° C. and then 1.5 ml of 1N hydrochloric acid was added. The fluoresence was measured with a fluorimeter (excitement length 400 nM-length of emission wave 500 nM). The amount of ADN per well was evaluated with respect to a standard scale obtained by treating under the same conditions an ADN standard of the calf thymus. The concentration in nM which inhibit by 50% the increase in the MCF 7 cells or CI50 was determined in the same manner with the results of the following Table.
The medium for culture of calf fetal serum (SVF) was prepared as follows: MEM medium (minimal essential medium) to which was added non-essential amino acids (GIBCO), peni-strepto (penicillin 100 U/ml, streptomycine 0.1 mg/ml), 0.1% fungizone, 50 ng/ml of insulin and a 10% final concentration of calf fetal serum free of endrogenic steroids.

The target of test [2] is T1, glucocorticoid receptor, rat thymus (Rattus norvegicus, UniProt P06536).
T1 construct: The second test was a glucocrticoid receptor test on rat thymus; from tissue; host or cells: thymus of adrenalectomized male Sprague Dawley EOPS rats, 105,000 g supernatant (cytosol)
T1 sequence (P06536 1-795): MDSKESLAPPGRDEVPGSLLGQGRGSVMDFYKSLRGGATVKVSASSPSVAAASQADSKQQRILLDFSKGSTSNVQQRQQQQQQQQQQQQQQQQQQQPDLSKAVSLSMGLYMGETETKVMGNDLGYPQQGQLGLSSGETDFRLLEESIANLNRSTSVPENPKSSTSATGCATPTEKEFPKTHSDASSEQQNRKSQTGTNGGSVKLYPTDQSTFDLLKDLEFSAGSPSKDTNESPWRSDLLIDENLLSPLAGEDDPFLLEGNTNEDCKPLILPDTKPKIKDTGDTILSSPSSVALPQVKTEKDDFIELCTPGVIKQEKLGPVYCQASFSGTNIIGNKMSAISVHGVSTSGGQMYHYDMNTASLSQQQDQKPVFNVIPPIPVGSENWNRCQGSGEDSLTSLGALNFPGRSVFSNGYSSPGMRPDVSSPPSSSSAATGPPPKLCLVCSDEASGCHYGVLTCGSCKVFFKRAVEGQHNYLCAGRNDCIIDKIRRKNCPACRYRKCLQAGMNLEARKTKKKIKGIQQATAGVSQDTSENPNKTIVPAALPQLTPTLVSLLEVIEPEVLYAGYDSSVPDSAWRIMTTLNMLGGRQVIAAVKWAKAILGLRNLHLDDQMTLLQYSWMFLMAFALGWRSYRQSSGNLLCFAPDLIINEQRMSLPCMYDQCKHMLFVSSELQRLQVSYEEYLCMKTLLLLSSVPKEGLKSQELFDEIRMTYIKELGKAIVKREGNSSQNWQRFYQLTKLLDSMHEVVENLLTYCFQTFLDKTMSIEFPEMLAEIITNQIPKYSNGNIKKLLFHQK
Kind of test: Relative binding affinity (ARL), glucocorticoid receptor of rat thymus. Conditions: rat thymus cytosol, tritiated dexamethasone, cold reference dexamethasone; for relative affinity of the bond (ARL), Glucocorticoid, 2H: incubation 2H at 0° C.; for relative affinity of the bond (ARL), Glucocorticoid, 24H: incubation 24H at 0° C. The method, then: The second test was a glucocrticoid receptor test on rat thymus in which male rats of the Sprague Dawley EOPS strain weighing 160 to 200 g were surrenalectomized. 4 to 8 days after this ablation, the animals were killed and the thymus was removed and homogenized at 0° C. in a buffered TS solution. (Tris 10 mM, 0.25M saccharose, 2 mM dithiothreitol, HCl pH 7.4) with a Potter tetrafluoroethylene-glass (1 g of tissue per 10 ml/TS). The homogenate was ultracentrifuged at 105,000 for 90 minutes at 0° C. and the surnageant samples were incubated at 0° C. for a time t with a constant concentration T of tritiated dexamethasone in the presence of increasing concentrations (0-2500×10^-9 M) or cold dexamethasone or cold test compound. The concentration B of bound tritiated dexamethasone was measured for each incubate by carbon-dextran absorption technique.
The relative affinity of the bond (ARL) was calculated in the same for the receptors. One traced the following 2 curves: the percentage of bond tritiated hormone B/T as a logarithmic function of the concentration of the cold reference hormone and B/T as a logarithmic function of the concentration of the cold test compound. Using the equation [formula] B/T max.=% of bound tritiated hormone for one incubation of tritiated hormone at concentration (T)
B/T min.=% of bound tritiated hormone for one incubation of tritiated hormone at a concentration T in the presence of a great excess of cold hormone (2500×10^-9 M).
The intersections of I50 lines and the curves permit an evaluation of the hormone concentration of the cold reference (CH) and the cold test compound (CX) which inhibited by 50% the bounding of tritiated hormone to the receptor. The ARL of the test compound was determined by the equation. [formula] and the following results were obtained.

Take `CN(C)c1ccc([C@H]2C[C@@]3(C)[C@@H](CC[C@@]3(O)c3ccc(N(C)C)cc3)[C@@H]3CCC4=CC(=O)CCC4=C32)cc1` [Example 2, 11β,17α-bis-(4-dimethylamino-phenyl)-Δ^4,9-estradiene-17β-ol-3-one]: the IC50 in test [1] stood at 500 nM. Also, in test [2], the “relative affinity of the bond (ARL), Glucocorticoid, 2H” value was determined as 61 and the “relative affinity of the bond (ARL), Glucocorticoid, 24H” value is on record as 58.
The like results for `COc1ccc([C@]2(O)CC[C@H]3[C@@H]4CCC5=CC(=O)CCC5=C4[C@@H](c4ccc(N(C)C)cc4)C[C@@]32C)cc1` [Example 4, 11β-(4-dimethylamino-phenyl)-17α-(4-methoxy-phenyl)-Δ^4,9-estradiene-17β-ol-3-one] were, in that order, 400 nM, 65 and 69.
